Measurements: ChEMBL document CHEMBL5725952, “Imidazopyridine macrocycles as inhibitors of human immunodeficiency virus replication” (2018)

Assay: Inhibition of HIV Replication: A recombinant NL-RLuc proviral clone was constructed in which a section of the nef gene from NL4-3 was replaced with the Renilla Luciferase gene. This virus is fully infectious and can undergo multiple cycles of replication in cell culture. In addition, the luciferous reporter provides a simple and easy method for quantitating the extent of virus growth and consequently, the antiviral activity of test compounds. The plasmid pNLRLuc contains the proviral NL-Rluc DNA cloned into pUC18 at the PvuII site. The NL-RLuc virus was prepared by transfection of 293T cells with the plasmid pNLRLuc. Transfections were performed using the LipofectAMINE PLUS kit from Invitrogen (Carlsbad, Calif.) according to the manufacturer and the virus generated was titered in MT-2 cells. For susceptibility analyses, the titrated virus was used to infect MT-2 cells in the presence of compound, and after 5 days of incubation, cells were processed and quantitated for virus growth by the amount of expressed luciferase. Assay media was RPMI 1640 supplemented with 10% heat inactivated fetal bovine serum (FBS), 100 units/ml penicillin G/100 units/ml streptomycin, 10 mM HEPES buffer pH 7.55 and 2 mM L-glutamine. The results from at least 2 experiments were used to calculate the EC50 values. Luciferase was quantitated using the Dual Luciferase kit from Promega (Madison, Wis.). […]
Format: cell-based
Settings: HEK-293T

| Compound | EC50 [nM] |
| --- | --- |
| Cc1c([C@@H](OC(C)(C)C)C(=O)O)c2n3cc(nc3c1C)-c1cccc(c1)-c1cc(F)c(F)cc1O[C@@H](C)COCCOC1(C)CCN2CC1 | 550 |
| Cc1c([C@H](OC(C)(C)C)C(=O)O)c2n3cc(nc3c1C)-c1cccc(c1)-c1cc(F)c(F)cc1O[C@@H](C)COCCOC1(C)CCN2CC1 | < 100 |
